ChEMBL document CHEMBL3603840, “Discovery of non-competitive thrombin inhibitor derived from competitive tryptase inhibitor skeleton: Shift in molecular recognition resulted from skeletal conversion of carboxylate into phosphonate” (Bioorg Med Chem Lett, 2015)
The source made the active and inactive calls. The calls are words filed in the database; no cut-off is given here.

Legend:
[1] = target: T1, Prothrombin (Homo sapiens, UniProt P00734); assay: Inhibition of thrombin (unknown origin) using t-Boc-Val-Pro-Arg-MCA as substrate at 10 uM after 5 mins by fluorimetric analysis
[2] = target: T2, Trypsin (Homo sapiens, UniProt P07477+P07478+P35030); assay: Inhibition of trypsin (unknown origin) using Bz-Arg-pNA.HCl as substrate at 10 uM after 5 mins by colorimetric analysis; type: protein assay
[3] = target: T3, Tryptase (Homo sapiens, UniProt Q9BZJ3+Q15661+Q9NRR2); assay: Inhibition of tryptase (unknown origin) using t-Boc-Phe-Ser-Arg-MCA as substrate at 10 uM after 5 mins by fluorimetric analysis; type: protein assay
[4] = target: T1, Prothrombin; assay: Competitive inhibition of thrombin (unknown origin) using t-Boc-Val-Pro-Arg-MCA as substrate by Lineweaver-Burk plot analysis
[5] = target: T1, Prothrombin; assay: Inhibition of thrombin (unknown origin) using t-Boc-Val-Pro-Arg-MCA as substrate after 5 mins by fluorimetric analysis
[6] = target: T2, Trypsin; assay: Inhibition of trypsin (unknown origin) using Bz-Arg-pNA.HCl as substrate after 5 mins by colorimetric analysis; type: protein assay
[7] = target: T3, Tryptase; assay: Inhibition of tryptase (unknown origin) using t-Boc-Phe-Ser-Arg-MCA as substrate after 5 mins by fluorimetric analysis; type: protein assay
[8] = target: T1, Prothrombin; assay: Non-competitive inhibition of thrombin (unknown origin) using t-Boc-Val-Pro-Arg-MCA as substrate by Lineweaver-Burk plot analysis

Row | inhibition [4] | IC50 [5] [µM] | IC50 [6] [µM] | IC50 [7] [µM] | Structure (SMILES) | inhibition [1] | inhibition [2] | inhibition [3] | inhibition [8]
1 | – | – | – | – | CCOP(=O)(Cc1ccc(N)nc1)Oc1ccc2c(c1)C(=O)N(C)C2=O (stereo not given) | 59% | inactive | 5.3% | –
2 | – | – | – | – | CC(C)N1C(=O)c2ccc(NC(CCc3ccc(N)nc3)P(=O)(Oc3ccccc3)Oc3ccccc3)cc2C1=O (stereo not given) | inactive | inactive | inactive | –
3 | – | – | – | – | CN1C(=O)c2ccc(NC(CCc3ccc(N)nc3)P(=O)(Oc3ccccc3)Oc3ccccc3)cc2C1=O (stereo not given) | inactive | inactive | inactive | –
4 | Active | 5.3 | 1.2 | 0.19 | CN1C(=O)c2ccc(OC(=O)CCc3ccc(N)nc3)cc2C1=O.Cl | 70% | 97% | 98% | –
5 | – | – | – | – | CCOP(=O)(CCc1ccc(N)nc1)Oc1ccc2c(c1)C(=O)N(C)C2=O (stereo not given) | 95% | inactive | 11% | inactive
